{
  "source": "patent US20170363612A1",
  "about": "“COMPOSITIONS AND METHODS RELATING TO PROLIFERATIVE DISORDERS” (Wayne State University, priority 2014, published 2017)",
  "key": {"[1]": {"biological_target": "T1, topoisomerase I (Homo sapiens, UniProt P11387)", "T1 sequence (P11387 1-765)": "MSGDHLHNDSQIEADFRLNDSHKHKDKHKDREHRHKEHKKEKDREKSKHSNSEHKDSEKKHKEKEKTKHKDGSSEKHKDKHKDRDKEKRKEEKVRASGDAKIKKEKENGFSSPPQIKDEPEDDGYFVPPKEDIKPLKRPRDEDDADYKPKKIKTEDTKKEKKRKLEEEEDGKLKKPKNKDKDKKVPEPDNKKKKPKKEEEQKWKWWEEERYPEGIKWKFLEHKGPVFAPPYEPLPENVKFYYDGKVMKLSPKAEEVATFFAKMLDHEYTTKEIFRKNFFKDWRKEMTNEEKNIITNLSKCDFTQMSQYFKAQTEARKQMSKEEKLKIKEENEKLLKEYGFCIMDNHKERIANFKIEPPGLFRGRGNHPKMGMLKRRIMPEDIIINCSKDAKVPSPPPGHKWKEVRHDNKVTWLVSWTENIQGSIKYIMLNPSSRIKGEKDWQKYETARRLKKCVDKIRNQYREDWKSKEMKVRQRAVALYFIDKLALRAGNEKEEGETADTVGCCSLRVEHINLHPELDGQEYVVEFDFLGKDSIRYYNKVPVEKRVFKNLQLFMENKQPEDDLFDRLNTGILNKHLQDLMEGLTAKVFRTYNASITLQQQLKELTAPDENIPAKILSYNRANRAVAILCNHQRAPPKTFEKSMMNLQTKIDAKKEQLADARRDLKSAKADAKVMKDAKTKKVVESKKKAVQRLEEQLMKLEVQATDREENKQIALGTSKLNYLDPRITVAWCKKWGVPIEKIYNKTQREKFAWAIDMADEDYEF", "conditions": "cited from earlier work"}, "[2]": {"conditions": "in vivo, po; cited from earlier work"}, "[3]": {"system": "SET Ribosome"}, "[4]": {"system": "SET Ribosome", "assay": "Topotecan dose response assay, MCF7 TR Cell Panel", "assay_type": "cell-based, human"}, "[5]": {"system": "SET Ribosome", "assay": "Topotecan Modifier Assay on TPA Reference Standard response, HEK293 TR cell lines", "assay_type": "cell-based, human", "conditions": "HEK293 hTRdm-fLUC#13 and mTRdm-fLUC#45; with 100 nM TPA; 6 hours"}, "[6]": {"assay": "LD50 in mice (quoted)", "conditions": "oral 0.000054 mg/kg/day vs mouse LD50"}, "[7]": {"conditions": "cited from earlier work"}, "[8]": {"conditions": "cited from earlier work", "remark": "listed apart in the source"}, "[9]": {"assay": "LD50 in rats (quoted)", "conditions": "oral 0.00013 mg/kg/day"}, "[10]": {"system": "SET Ribosome", "assay": "TPA Reference Standard Response Modifier Assay with ribosome binding translation inhibitors, HEK293 hTRdm-fLUC#13", "assay_type": "cell-based, human", "conditions": "with 100 nM TPA, 6 hours"}, "[11]": {"system": "PKC", "conditions": "cited from earlier work"}},
  "note": "Where “and” joins values, the source holds several entries; their conditions need not be identical. Equal entries are not always repeated. Where two headings read alike, the source gives them in different places.",
  "data": [
    {"molecule": "CCc1c2c(nc3ccc(O)cc13)-c1cc3c(c(=O)n1C2)COC(=O)[C@]3(O)CC", "note": "[SN-38, 7-ethyl-10-hydroxy-camptothecin]", "values": [
      {"measurement": "potency relative to irinotecan", "setting": "[1]", "result": 1000, "unit": "X"}
    ]},
    {"molecule": "CC[C@@]1(O)C(=O)OCc2c1cc1n(c2=O)Cc2cc3c(CN(C)C)c(O)ccc3nc2-1.Cl", "note": "[Topotecan, (S)-10-[(dimethylamino)methyl]-4-ethyl-4,9-dihydroxy-1H-pyrano[3′,4′:6,7]indolizino[1,2-b]quinoline-3,14(4H,12H)-dione monohydrochloride]", "values": [
      {"measurement": "oral bioavailability", "setting": "[2]", "result": "~40", "unit": "%"},
      {"measurement": "time of peak plasma concentration post-administration", "setting": "[2]", "result": "1 to 2", "unit": "h"},
      {"measurement": "SET Response", "setting": "[3]; High dose (HD) 10 uM", "result": "Antagonist"},
      {"measurement": "SET Response", "setting": "[3]; Low dose (LD): Calon 1 uM, Topotecan 100 nM", "result": "Agonist"},
      {"measurement": "IC100", "setting": "[4]; MCF7 TR Cell Panel", "result": "> 5", "unit": "µM"},
      {"measurement": "dose of maximal SET response", "setting": "[4]; MCF7 TR Cell Panel", "result": 10, "unit": "nM"},
      {"measurement": "dose range of SET Agonist activity", "setting": "[4]; MCF7 TR Cell Panel", "result": "2 to 100", "unit": "nM"},
      {"measurement": "concentrations giving complete SET Ribosome block", "setting": "[4]; MCF7 TR Class 3 and Class 4 lines, 6 hours", "result": "≥ 5", "unit": "µM"},
      {"measurement": "doses completely blocking SET Ribosome activity", "setting": "[5]", "result": "> 5", "unit": "µM"}
    ]},
    {"molecule": "COc1ccc(C[C@H]2NC[C@H](O)[C@H]2OC(C)=O)cc1", "note": "[anisomycin, (2R,3S,4S)-4-hydroxy-2-(4-methoxybenzyl)-pyrrolidin-3-yl acetate]", "values": [
      {"measurement": "factor by which the IC100 dose is lower than a toxic concentration", "setting": "[6]", "result": "> 14,000 ×"},
      {"measurement": "LD50", "setting": "[7]; route not stated", "result": "75 to 200", "unit": "mg/kg"}
    ]},
    {"molecule": "CC[C@H]1CN2CCc3cc(OC)c(OC)cc3[C@@H]2C[C@@H]1C[C@H]1NCCc2cc(OC)c(OC)cc21", "note": "[emetine, (2S, 3R, 11bS)-2-{{(1R)-6,7-dimethoxy-1,2,3,4-tetrahydroisoquinolin-1-yl]methyl}-3-ethyl-9,10-dimethoxy-2,3,4,6,7,11b-hexahydro-1H-pyrido[2,1-a] isoquinoline]", "values": [
      {"measurement": "LD50", "setting": "[8]; intravenous", "result": 5, "unit": "µM"},
      {"measurement": "LD50", "setting": "[8]; oral", "result": 35, "unit": "µM"},
      {"measurement": "factor by which the IC100 dose is lower than the rat LD50", "setting": "[9]", "result": "> 5,231 ×"},
      {"measurement": "LD50", "setting": "[7]; subcutaneous", "result": 58, "unit": "µM"},
      {"measurement": "IC50", "setting": "[10]; Homo sapiens, HEK293, read-out: IC50, SET ribosome inhibition", "result": 0.175, "unit": "µM"},
      {"measurement": "IC100 (100% SET Ribosome inhibition)", "setting": "[10]", "result": "2.5 µM and 2.5 to 10 µM"}
    ]},
    {"molecule": "Bryostatin 2", "values": [
      {"measurement": "enzyme binding constant relative to bryostatin 1", "setting": "[11]", "result": 10, "unit": "times"}
    ]}
  ]
}
